Data on eight molecules can be found in PubChem BioAssay (NCI).

Among the test systems are NCI-H522 lung; SF-295 CNS; KM12 colon; CCRF-CEM leukemia; SF-268 CNS; HOP-92 NSCLC; HOP-62 NSCLC; MDA-MB-231 breast; COLO 205 colon; SNB-75 CNS.
Common to all, as to assay: NCI anticancer screen, dose series, 48 h

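Protocol summary: plate cells (96-well), add compound at 5 concentrations, incubate 48 h, interpolate endpoints linearly. GI50 marks 50% less growth. TGI denotes the concentration required for complete inhibition of growth.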

Consider `CCCCON(OC(=O)c1ccc2ccccc2c1)C(=O)c1ccccc1`, for which the GI50 is 63 µM in the test on NCI-H522 lung; more than 100 µM with SF-295 CNS; more than 100 µM in the test with KM12 colon; 21.4 µM in the test on CCRF-CEM leukemia; more than 100 µM with SF-268 CNS; 44.8 µM with HOP-92 NSCLC. Besides, the GI50 in the test with HOP-62 NSCLC was more than 100 µM; in the test with MDA-MB-231 breast it was more than 100 µM; in the test on COLO 205 colon it was more than 100 µM; with SNB-75 CNS it was 86.2 µM. The TGI in the test with NCI-H522 lung is more than 100 µM; with SF-295 CNS it was more than 100 µM; in the test on KM12 colon, more than 100 µM; in the test on CCRF-CEM leukemia it was 57.3 µM; in the test on SF-268 CNS, more than 100 µM; in the test on HOP-92 NSCLC, more than 100 µM. Moreover, the TGI in the test on HOP-62 NSCLC, in the test with MDA-MB-231 breast, in the test with COLO 205 colon and in the test on SNB-75 CNS was more than 100 µM throughout.
In the case of `OC(Cc1ccncc1)C(Cl)(Cl)Cl` (centres undefined), the GI50 in the test on NCI-H522 lung is more than 100 µM; in the test on SF-295 CNS, 7.83 µM; with KM12 colon it was more than 100 µM; in the test with CCRF-CEM leukemia, 32 µM; in the test on SF-268 CNS, more than 100 µM; with HOP-92 NSCLC it was 0.109 µM. Further, the GI50 in the test on HOP-62 NSCLC, in the test on MDA-MB-231 breast, in the test on COLO 205 colon and with SNB-75 CNS was more than 100 µM in each case. Moreover, the TGI in the test on NCI-H522 lung, with SF-295 CNS, in the test with KM12 colon, in the test with CCRF-CEM leukemia, in the test on SF-268 CNS and in the test with HOP-92 NSCLC was more than 100 µM in each case. The TGI with HOP-62 NSCLC, with MDA-MB-231 breast, with COLO 205 colon and with SNB-75 CNS was more than 100 µM throughout.
For the molecule `Oc1c(-c2nnc(-c3ccccc3Cl)o2)sc2nnc(-c3ccccc3)c(-c3ccccc3)c12`, the GI50 with NCI-H522 lung was 3.59 µM; in the test on SF-295 CNS, 1.89 µM; with KM12 colon, 4.36 µM; in the test with CCRF-CEM leukemia it was 1.43 µM; in the test with SF-268 CNS, 6.27 µM; with HOP-92 NSCLC it was 1.81 µM. Also, the GI50 was 4.99 µM in the test with HOP-62 NSCLC, 4.08 µM in the test with MDA-MB-231 breast, 4.4 µM with COLO 205 colon and 6.94 µM in the test with SNB-75 CNS. For the same molecule, the TGI is 23.5 µM with NCI-H522 lung; 15.6 µM with SF-295 CNS; 51.3 µM in the test with KM12 colon; more than 100 µM in the test with CCRF-CEM leukemia; more than 100 µM with SF-268 CNS; more than 100 µM in the test with HOP-62 NSCLC. For the same molecule, the TGI with MDA-MB-231 breast was 40.1 µM; with COLO 205 colon it was more than 100 µM; in the test on SNB-75 CNS, more than 100 µM.
Turning to `Clc1nc(Cl)c2ncn(CC3(Cn4cnc5c(Cl)nc(Cl)nc54)COC3)c2n1`, the GI50 with NCI-H522 lung is 0.966 µM; in the test on SF-295 CNS, 1.56 µM; in the test on KM12 colon, 0.362 µM; in the test on CCRF-CEM leukemia, 0.221 µM; with SF-268 CNS it was 0.196 µM; in the test on HOP-92 NSCLC, 0.33 µM. In addition, the GI50 in the test on HOP-62 NSCLC was 0.221 µM; in the test on MDA-MB-231 breast, 0.19 µM; with COLO 205 colon, 0.184 µM; in the test with SNB-75 CNS it was 0.201 µM. In addition, the TGI is 3.07 µM in the test on NCI-H522 lung; 3.1 µM in the test with SF-295 CNS; 1.01 µM in the test on KM12 colon; 0.471 µM with CCRF-CEM leukemia; 0.372 µM with SF-268 CNS; 0.876 µM with HOP-92 NSCLC. The TGI is 0.426 µM in the test on HOP-62 NSCLC, 0.371 µM in the test with MDA-MB-231 breast, 0.356 µM in the test on COLO 205 colon and 0.395 µM with SNB-75 CNS.
Regarding `CCOC(=O)c1c(C)nc2c(c1N)CC(=O)N2Cc1ccc(OC)cc1`, the GI50 in the test with NCI-H522 lung is more than 100 µM; in the test on SF-295 CNS it was 2.53 µM; in the test on KM12 colon, more than 100 µM; with CCRF-CEM leukemia, more than 100 µM; in the test with SF-268 CNS it was 4.29 µM; in the test with HOP-92 NSCLC, 2.29 µM. Also, the GI50 with HOP-62 NSCLC was 2.1 µM; in the test with MDA-MB-231 breast, 3.77 µM; with COLO 205 colon, more than 100 µM; in the test on SNB-75 CNS, 3.4 µM. For the same molecule, the TGI in the test with NCI-H522 lung was more than 100 µM; in the test on SF-295 CNS it was 7.37 µM; in the test on KM12 colon, more than 100 µM; in the test with CCRF-CEM leukemia, more than 100 µM; in the test on SF-268 CNS it was more than 100 µM; in the test with HOP-92 NSCLC, 6.5 µM. The TGI in the test on HOP-62 NSCLC is 5.97 µM; in the test on MDA-MB-231 breast, more than 100 µM; in the test on COLO 205 colon it was more than 100 µM; in the test with SNB-75 CNS, 25.8 µM.
Turning to `COC(=O)c1ccc(-c2nc3cc(Cl)c(Cl)cc3nc2C#N)cc1`, the GI50 was more than 100 µM with NCI-H522 lung; more than 100 µM in the test with SF-295 CNS; more than 100 µM in the test with KM12 colon; 31.6 µM in the test on CCRF-CEM leukemia; more than 100 µM in the test with SF-268 CNS; 79 µM with HOP-92 NSCLC. Also, the GI50 is 82.4 µM in the test with HOP-62 NSCLC, more than 100 µM in the test on MDA-MB-231 breast, more than 100 µM with COLO 205 colon and more than 100 µM in the test with SNB-75 CNS. Besides, the TGI with NCI-H522 lung, in the test with SF-295 CNS, in the test with KM12 colon, in the test with CCRF-CEM leukemia, with SF-268 CNS and in the test with HOP-92 NSCLC was more than 100 µM throughout. The TGI in the test with HOP-62 NSCLC, in the test on MDA-MB-231 breast, with COLO 205 colon and in the test with SNB-75 CNS was more than 100 µM each time.
Regarding `COC12C=C/C(=C(/C(=O)OCc3cncnc3)C(=O)CCCCCCCCC3(OC)C=C/C(=C(/C(=O)OCc4cncnc4)C(=O)CCCCCCCC1)O3)O2`, the GI50 is 0.137 µM in the test on NCI-H522 lung; 0.326 µM with SF-295 CNS; 0.305 µM in the test on KM12 colon; 0.196 µM with CCRF-CEM leukemia; 0.312 µM in the test on SF-268 CNS; 1 µM with HOP-92 NSCLC. Also, the GI50 in the test on HOP-62 NSCLC was 0.624 µM; in the test with MDA-MB-231 breast, 0.597 µM; in the test on COLO 205 colon it was 0.587 µM; in the test on SNB-75 CNS, 1.19 µM. The TGI with NCI-H522 lung is 0.408 µM; in the test with SF-295 CNS, 1.74 µM; with KM12 colon, 1.28 µM; in the test with CCRF-CEM leukemia, 3.79 µM; with SF-268 CNS it was 4 µM; with HOP-92 NSCLC it was 2.18 µM. For the same molecule, the TGI in the test on HOP-62 NSCLC is 2.97 µM; in the test on MDA-MB-231 breast, more than 50 µM; in the test with COLO 205 colon it was 2.25 µM; with SNB-75 CNS it was 6.84 µM.
`Cc1c[n+](=O)c2ccccc2n1[O-]`: the TGI in the test with NCI-H522 lung, in the test with SF-295 CNS, with KM12 colon, in the test with CCRF-CEM leukemia, with SF-268 CNS and in the test on HOP-92 NSCLC was more than 100 µM in each case. For the same molecule, the TGI with HOP-62 NSCLC, in the test on MDA-MB-231 breast, in the test with COLO 205 colon and with SNB-75 CNS was more than 100 µM each time.
